21 compounds from patent US10219516B2, “Molecules having pesticidal utility, and intermediates, compositions, and processes, related thereto” (priority 2015, dated 2019) can be followed below.

Experiment [1] deals with Cabbage Looper (Trichoplusia ni, TRIPNI). Put plainly: Bioassay on Cabbage Looper (CL), 128-well diet tray assay. Format: in vivo. The conditions noted are these: Trichoplusia ni. In short, it runs like this:
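Using eight wells per molecule, artificial diet was dosed at 50 μg/cm^2 with compound in 90:10 acetone-water and dried before one to five second-instar larvae were added per well. Covered vented trays were kept at 25° C. with 14:10 light-dark for five to seven days, then per-well percent mortality was recorded and averaged.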

For experiment [2], the system named is Beet Armyworm (Spodoptera exigua, LAPHEG). Put plainly: Bioassay on Beet Armyworm (BAW), 128-well diet tray assay. Format: in vivo. In short, it runs like this: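 Percent mortality, averaged across eight replicate wells, was scored after five to seven days at 25° C. under a 14:10 light-dark cycle. Each well's diet carried 50 μg/cm^2 of the dried test molecule and held one to five second instar larvae.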

[3] abbreviates: Species CL (Cabbage Looper), read-out: CL (Biological Results, rating).
Setting [4] is: Species BAW (Beet Armyworm), read-out: BAW (Biological Results, rating).
Where [5] appears, read: Cabbage Looper, 128-well diet tray assay, read-out: CL rating.
Where [6] appears, read: Beet Armyworm, 128-well diet tray assay, read-out: BAW rating.

Where two headings read alike, the source gives them in different places.

Regarding `N#Cc1ccc(NC(=O)c2cc(NC(=O)[C@H]3[C@H](c4ccc(Cl)c(Cl)c4)C3(Cl)Cl)ccc2F)c(F)c1` (relative stereo) [F94, trans-N-(4-Cyano-2-fluorophenyl)-5-(2,2-dichloro-3-(3,4-dichlorophenyl)cyclopropane-1-carboxamido)-2-fluorobenzamide], the pest or weed control at 50 µg/cm2 in experiment [1] (setting [3]) and in experiment [2] (setting [4]) was 50 to 100% throughout.
Turning to `CNc1cc(NC(=O)c2cc(NC(=O)[C@H]3[C@H](c4cc(Cl)cc(Cl)c4)C3(Cl)Cl)ccc2Cl)ccc1C` (relative stereo) [F207, trans-2-Chloro-5-(2,2-dichloro-3-(3,5-dichlorophenyl)cyclopropane-1-carboxamido)-N-(4-methyl-3-(methylamino)phenyl)benzamide], the pest or weed control at 50 µg/cm2 in experiment [1] (setting [3]) and in experiment [2] (setting [4]) was 50 to 100% in each case.
On to `O=C(Nc1ccc(F)cc1)c1cc(NC(=O)[C@H]2[C@H](c3cc(C(F)(F)F)cc(C(F)(F)F)c3)C2(Cl)Cl)ccc1Cl` (relative stereo) [F84, trans-5-(3-(3,5-Bis(trifluoromethyl)phenyl)-2,2-dichlorocyclopropane-1-carboxamido)-2-chloro-N-(4-fluorophenyl)benzamide], for which the pest or weed control at 50 µg/cm2 in experiment [1] (setting [3]) and in experiment [2] (setting [4]) was 50 to 100% each time.
Turning to `Nc1c(F)ccc(NC(=O)c2cc(NC(=O)C3C(c4cc(F)cc(C(F)(F)F)c4)C3(Cl)Cl)ccc2Cl)c1F` (stereo not drawn) [F623, N-(3-Amino-2,4-difluorophenyl)-2-chloro-5-(2,2-dichloro-3-trans-(3-fluoro-5-(trifluoromethyl)phenyl)cyclopropane-1-carboxamido)benzamide], the pest or weed control at 50 µg/cm2 in experiment [1] (setting [5]) and in experiment [2] (setting [6]) was 50 to 100% in each case.
Turning to `N#Cc1ccc(NC(=O)c2cc(NC(=O)[C@H]3[C@H](c4cc(Cl)c(Cl)c(Cl)c4)C3(Cl)Cl)ccc2F)c(F)c1` (relative stereo) [F95, trans-N-(4-Cyano-2-fluorophenyl)-5-(2,2-dichloro-3-(3,4,5-trichlorophenyl)cyclopropane-1-carboxamido)-2-fluorobenzamide], the pest or weed control at 50 µg/cm2 in experiment [1] (setting [3]) and in experiment [2] (setting [4]) was 50 to 100% throughout.
As for `O=C(Nc1ccc(Cl)c(C(=S)Nc2ccc(F)cc2)c1)[C@H]1[C@H](c2cc(Cl)cc(Cl)c2)C1(Cl)Cl` (relative stereo) [F113, trans-2,2-Dichloro-N-(4-chloro-3-((4-fluorophenyl)carbamothioyl)phenyl)-3-(3,5-dichlorophenyl)cyclopropane-1-carboxamide], the pest or weed control at 50 µg/cm2 in experiment [1] (setting [3]) and in experiment [2] (setting [4]) was 50 to 100% throughout.
Take `O=C(Nc1ccc(F)c(C(F)(F)F)c1)c1cc(NC(=O)[C@H]2[C@H](c3cc(Cl)cc(Cl)c3)C2(Cl)Cl)ccc1Cl` (relative stereo) [PF70, trans-2-Chloro-5-(2,2-dichloro-3-(3,5-dichlorophenyl)cyclopropane-1-carboxamido)-N-(4-fluoro-3-(trifluoromethyl)phenyl)benzamide]: the pest or weed control at 50 µg/cm2 in experiment [1] (setting [5]) and in experiment [2] (setting [6]) was 50 to 100% each time.
On to `C[S+]([O-])c1ccc(NC(=O)c2cc(NC(=O)[C@H]3[C@H](c4cc(Cl)cc(Cl)c4)C3(Cl)Cl)ccc2Cl)cc1` (relative stereo) [F159, trans-2-Chloro-5-(2,2-dichloro-3-(3,5-dichlorophenyl)cyclopropane-1-carboxamido)-N-(4-(methylsulfinyl)phenyl)benzamide], for which the pest or weed control at 50 µg/cm2 in experiment [1] (setting [3]) and in experiment [2] (setting [4]) was 50 to 100% throughout.
`CC(=O)Nc1ccc(NC(=O)c2cc(NC(=O)[C@H]3[C@H](c4cc(Cl)cc(Cl)c4)C3(Cl)Cl)c(Cl)cc2Cl)cc1` (relative stereo) [F255, trans-N-(4-Acetamidophenyl)-2,4-dichloro-5-(2,2-dichloro-3-(3,5-dichlorophenyl)cyclopropane-1-carboxamido)benzamide]: the pest or weed control at 50 µg/cm2 in experiment [1] (setting [3]) was 0 to 50%; in experiment [2] (setting [4]), 50 to 100%.
On to `Cc1cc(N(C)C(=O)OC(C)(C)C)ccc1NC(=O)c1cc(NC(=O)[C@H]2[C@H](c3cc(Cl)cc(Cl)c3)C2(Cl)Cl)ccc1Cl` (relative stereo) [F198, trans-tert-Butyl-(4-(2-chloro-5-(2,2-dichloro-3-(3,5-dichlorophenyl)cyclopropane-1-carboxamido)benzamido)-3-methylphenyl)(methyl)carbamate], for which the pest or weed control at 50 µg/cm2 in experiment [1] (setting [3]) and in experiment [2] (setting [4]) was 50 to 100% in each case.
`O=C(Nc1ccc(F)cc1)c1cc(NC(=O)[C@H]2[C@H](c3cc(Cl)cc(Cl)c3)C2(Cl)Cl)cc[n+]1[O-]` (relative stereo) [F141, trans-4-(2,2-Dichloro-3-(3,5-dichlorophenyl)cyclopropane-1-carboxamido)-2-((4-fluorophenyl)carbamoyl)pyridine 1-oxide]: the pest or weed control at 50 µg/cm2 in experiment [1] (setting [3]) and in experiment [2] (setting [4]) was 50 to 100% each time.
For the compound `O=C(Nc1cnns1)c1cc(NC(=O)[C@H]2[C@H](c3cc(Cl)cc(Cl)c3)C2(Cl)Cl)ccc1Cl` (relative stereo) [F138, trans-2-Chloro-5-(2,2-dichloro-3-(3,5-dichlorophenyl)cyclopropane-1-carboxamido)-N-(1,2,3-thiadiazol-5-yl)benzamide], the pest or weed control at 50 µg/cm2 in experiment [1] (setting [3]) and in experiment [2] (setting [4]) was 50 to 100% in each case.
On to `O=C(Nc1ncc(F)cc1F)c1cc(NC(=O)[C@H]2[C@H](c3cc(Cl)cc(C(F)F)c3)C2(Cl)Cl)ccc1Cl` (relative stereo) [F584, 2-Chloro-5-(trans-2,2-dichloro-3-(3-chloro-5-(difluoromethyl)phenyl)cyclopropane-1-carboxamido)-N-(3,5-difluoropyridin-2-yl)benzamide], for which the pest or weed control at 50 µg/cm2 in experiment [1] (setting [5]) and in experiment [2] (setting [6]) was 50 to 100% each time.
Turning to `C[S+]([O-])c1ccc(NC(=O)[C@H]2[C@H](c3cc(Cl)cc(Cl)c3)C2(Cl)Cl)cc1C(=O)Nc1ccc(F)cc1` (relative stereo) [F158, trans-5-(2,2-dichloro-3-(3,5-dichlorophenyl)cyclopropane-1-carboxamido)-N-(4-fluorophenyl)-2-(methylsulfinyl)benzamide], the pest or weed control at 50 µg/cm2 in experiment [1] (setting [3]) and in experiment [2] (setting [4]) was 50 to 100% each time.
On to `C=CCN(C(=O)c1cc(NC(=O)[C@H]2[C@H](c3cc(Cl)cc(Cl)c3)C2(Cl)Cl)ccc1Cl)c1ccc(F)cc1` (relative stereo) [F102, trans-N-Allyl-2-chloro-5-(2,2-dichloro-3-(3,5-dichlorophenyl)cyclopropane-1-carboxamido)-N-(4-fluorophenyl)benzamide], for which the pest or weed control at 50 µg/cm2 in experiment [1] (setting [3]) and in experiment [2] (setting [4]) was 50 to 100% each time.
On to `CC(C)(C)OC(=O)N(C(=O)OC(C)(C)C)c1c(F)ccc(NC(=O)c2cc(NC(=O)[C@H]3[C@H](c4ccc(F)c(Cl)c4)C3(Cl)Cl)ccc2Cl)c1F` [F503, tert-Butyl-N-((tert-butoxy)carbonyl)-N-(3-(2-chloro-5-((1R,3R)-2,2-dichloro-3-(3-chloro-4-fluorophenyl)cyclopropane-1-carboxamido)benzamido)-2,6-difluorophenyl)carbamate], for which the pest or weed control at 50 µg/cm2 in experiment [1] (setting [5]) and in experiment [2] (setting [6]) was 50 to 100% in each case.
In the case of `O=C(Nc1ccc(F)cc1)c1cc(NC(=O)C2C(c3cc(Cl)cc(Cl)c3)C2(Cl)Br)ccc1Cl` (stereo not drawn) [PF33, 5-(trans)-2-Bromo-2-chloro-3-(3,5-dichlorophenyl)cyclopropane-1-carboxamido)-2-chloro-N-(4-fluorophenyl)benzamide], the pest or weed control at 50 µg/cm2 in experiment [1] (setting [5]) and in experiment [2] (setting [6]) was 50 to 100% each time.
As for `O=C(Nc1ccc(F)cc1)c1cc(NC(=O)[C@H]2[C@H](c3cc(F)cc(Cl)c3)C2(Cl)Cl)ccc1Cl` (relative stereo) [PF1, trans-2-Chloro-5-(2,2-dichloro-3-(3-chloro-5-fluorophenyl)cyclopropane-1-carboxamido)-N-(4-fluorophenyl)benzamide], the pest or weed control at 50 µg/cm2 in experiment [1] (setting [5]) and in experiment [2] (setting [6]) was 50 to 100% throughout.
`CN(C(=O)[C@H]1[C@H](c2cc(Cl)cc(Cl)c2)C1(Cl)Cl)c1ccc(Cl)c(C(=O)Nc2ccc(F)cc2)c1` (relative stereo) [F183, trans-2-Chloro-5-(2,2-dichloro-3-(3,5-dichlorophenyl)-N-methylcyclopropane-1-carboxamido)-N-(4-fluorophenyl)benzamide]: the pest or weed control at 50 µg/cm2 in experiment [1] (setting [3]) and in experiment [2] (setting [4]) was 50 to 100% in each case.
As for `CN(C(=O)OC(C)(C)C)c1ccc(NC(=O)c2cc(NC(=O)[C@H]3[C@H](c4cc(Cl)cc(Cl)c4)C3(Cl)Cl)ccc2Cl)cc1` (relative stereo) [PF12, trans-tert-Butyl-(4-(2-chloro-5-(2,2-dichloro-3-(3,5-dichlorophenyl)cyclopropane-1-carboxamido)benzamido)phenyl)(methyl)carbamate], the pest or weed control at 50 µg/cm2 in experiment [1] (setting [5]) and in experiment [2] (setting [6]) was 50 to 100% each time.
Take `Cc1c(Cl)cc([C@H]2[C@H](C(=O)Nc3ccc(Cl)c(C(=O)N(C)c4ccc(F)cc4)c3)C2(Cl)Cl)cc1Cl` (relative stereo) [F120, trans-2-Chloro-5-(2,2-dichloro-3-(3,5-dichloro-4-methylphenyl)cyclopropane-1-carboxamido)-N-(4-fluorophenyl)-N-methylbenzamide]: the pest or weed control at 50 µg/cm2 in experiment [1] (setting [3]) and in experiment [2] (setting [4]) was 50 to 100% throughout.
